Experimental data from patent US12584173B2, “Methods for disease treatment and drug discovery” (The Scripps Research Institute, priority 2018, dated 2026).

Legend:
CFTR = CFTR (Homo sapiens, UniProt P13569, DEL508-508); details: cited from earlier work
NPC1 [1] = test: NPC1 variant trafficking index (TrIdx, endo H resistance) in NPC1 null cell lines; format: cell-based, human
Description: (§1) NPC1 is composed of multiple domains that harbor the different variants contributing to disease. Given the heterozygous allelic composition of most NPC1 primary fibroblasts that compromise interpretation of the impact of a specific allele on disease progression, we silenced NPC1 expression with shRNA to generate stable null cell lines. These null cell lines were transiently transfected with a sparse collection of plasmids that each harbor one of 48 distinct NPC1 disease-associated variants in NPC1 distributed among the various NPC1 domains. […] We binned this sparse collection of variants into 4 functional classes (Cass I-IV). Class I variants lack polypeptide expression in response to non-sense and/or splicing (truncation) mutations (null), Class II missense variants are largely ER retained (defined as <0.2 TrIdx), Class III missense variants show an intermediate level of trafficking (defined as 0.2 to 0.5 TrIdx) and Class IV missense variants have a level of trafficking >0.5 TrIdx indicating significant export from the ER. […] The impact of cholesterol (ChoI) storage in the LE/LY for each of these variants was measured using automated high content screening image analysis based on filipin staining.
(§2) Each of the 48 NPC1 variants was examined for the impact of SAHA on both TrIdx and ChoI in the LE/LY. […] The effects of HDACi were NPC1-dependent as restoration of ChoI homeostasis by SAHA was not observed in fibroblasts lacking NPC1 and in null cell-lines lacking NPC1.

NPC1 [2] = test: cholesterol storage in LE/LY by filipin staining, high content image analysis; format: cell-based, human
Description: as §1, §2

NPC1 [3] = details: cited from earlier work

Chain of CFTR (P13569 with tags, fused parts or gaps DEL508-508): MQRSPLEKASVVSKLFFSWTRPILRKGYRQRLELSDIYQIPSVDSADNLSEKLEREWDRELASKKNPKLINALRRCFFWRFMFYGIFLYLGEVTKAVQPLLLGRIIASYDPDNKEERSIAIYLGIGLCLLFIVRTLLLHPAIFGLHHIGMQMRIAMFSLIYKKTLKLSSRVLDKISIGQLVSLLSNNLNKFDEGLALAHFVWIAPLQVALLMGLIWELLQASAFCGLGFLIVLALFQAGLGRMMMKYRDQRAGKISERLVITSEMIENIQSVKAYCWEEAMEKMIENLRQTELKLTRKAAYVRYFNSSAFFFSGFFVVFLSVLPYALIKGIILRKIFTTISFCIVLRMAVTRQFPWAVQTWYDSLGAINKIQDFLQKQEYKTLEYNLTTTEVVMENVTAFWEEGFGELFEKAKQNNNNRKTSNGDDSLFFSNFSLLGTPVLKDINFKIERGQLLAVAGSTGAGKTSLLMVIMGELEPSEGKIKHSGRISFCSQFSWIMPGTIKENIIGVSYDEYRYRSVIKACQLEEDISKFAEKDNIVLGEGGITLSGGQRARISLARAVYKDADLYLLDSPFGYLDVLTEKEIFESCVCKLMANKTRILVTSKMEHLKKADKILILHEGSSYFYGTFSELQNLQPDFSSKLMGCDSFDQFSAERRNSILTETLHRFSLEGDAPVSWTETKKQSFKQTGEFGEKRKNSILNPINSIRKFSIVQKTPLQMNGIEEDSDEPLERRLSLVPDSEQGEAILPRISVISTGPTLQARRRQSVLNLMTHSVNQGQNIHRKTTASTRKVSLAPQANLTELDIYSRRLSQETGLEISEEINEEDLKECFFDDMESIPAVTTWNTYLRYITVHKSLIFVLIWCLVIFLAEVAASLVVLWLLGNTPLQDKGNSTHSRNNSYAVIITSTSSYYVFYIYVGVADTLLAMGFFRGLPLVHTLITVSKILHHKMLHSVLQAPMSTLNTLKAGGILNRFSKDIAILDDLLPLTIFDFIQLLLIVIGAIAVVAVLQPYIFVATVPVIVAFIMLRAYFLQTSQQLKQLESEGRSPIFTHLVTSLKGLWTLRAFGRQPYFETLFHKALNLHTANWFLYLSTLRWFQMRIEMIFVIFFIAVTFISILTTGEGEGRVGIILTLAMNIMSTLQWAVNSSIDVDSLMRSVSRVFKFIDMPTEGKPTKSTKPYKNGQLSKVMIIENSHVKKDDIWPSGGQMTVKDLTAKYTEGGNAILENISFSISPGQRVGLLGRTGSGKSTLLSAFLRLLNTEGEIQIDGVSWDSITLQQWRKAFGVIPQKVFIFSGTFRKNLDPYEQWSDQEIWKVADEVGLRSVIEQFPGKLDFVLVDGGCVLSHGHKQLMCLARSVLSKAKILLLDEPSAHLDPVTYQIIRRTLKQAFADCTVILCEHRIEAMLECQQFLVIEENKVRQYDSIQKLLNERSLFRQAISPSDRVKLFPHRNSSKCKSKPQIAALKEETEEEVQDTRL

Row | SMILES | effect on export or function of F508del (CFTR) | TrIdx (NPC1 [1]; NPC1 H510P) | TrIdx (NPC1 [1]; NPC1 P532L) | TrIdx (NPC1 [1]; NPC1 R518Q) | TrIdx class after treatment (NPC1 [1]; majority of NPC1 variants with a TrIdx<0.2) | trafficking (NPC1 [1]; variants involved in the predicted path of cholesterol flow, TM region) | ChoI (NPC1 [2]; NPC1 H510P) | ChoI (NPC1 [2]; NPC1 P532L) | cholesterol homeostasis (NPC1 [2]; NPC1 R518Q) | response to treatment (NPC1 [2]; NPC1 V950M, S954L, P1007A and T1036M (CLD5, late age of neurological onset cluster)) | restoration of ChoI homeostasis (NPC1 [2]; fibroblasts lacking NPC1 and null cell-lines lacking NPC1) | cholesterol homeostasis of NPC1 variants (NPC1 [2]; in all domains) | cholesterol storage state (NPC1 [2]; variants along the predicted cholesterol flow path (R1077Q, Y1088C, W1145R, Y634C, P691S, L1191F)) | correction of the I1061T phenotype (protein stabilized for export to LE/LY, improved cholesterol homeostasis) (NPC1 [3])
1 | CC(C)(C)c1cc(C(C)(C)C)c(NC(=O)c2c[nH]c3ccccc3c2=O)cc1O [Ivacaftor] | no effect | – | – | – | – | – | – | – | – | – | – | – | – | –
2 | O=C(CCCCCCC(=O)Nc1ccccc1)NO [SAHA, Vorinostat] | – | inability of SAHA to improve | improved | large improvement | at least a Class III TrIdx | not changed | lack of significant correction | improved | does not significantly improve | highly responsive | not observed | significantly restored | improved to level of WT or even better than WT | correct the I1061T phenotype
